US10941137B2, “Difluoromethyl-phenyl triazoles” (Boehringer Ingelheim International GmbH, priority 2018, dated 2021)

System: human MDR1 P-gp
Assay: Efflux in MDCK cells transfected with the human MDR1 gene (MDCK-PGP permeability)
Format: in vitro ADME, canine
Settings: dog, pH 7.4, 37° C.; for efflux ratio: PEBA/PEAB; for Papp A→B: apical-to-basal apparent permeability (PEAB)
Method: Assessment of Efflux in Madin-Darby Canine Kidney (MDCK) Cells Transfected with the 30 Human MDR1 Gene to Assess Brain Penetration (Drug Metabolism and Disposition February 2008, 36 (2) 268-275; DOI: https://doi.org/10.1124/dmd.107.017434) Apparent permeability coefficients (PE) of the compounds across the MDCK-MDR1 cell monolayers are measured (pH 7.4, 37° C.) in apical-to-basal (AB) and basal-to-apical (BA) transport direction. AB permeability (PEAB) represents drug absorption from the blood into the 35 brain and BA permeability (PEBA) drug efflux from the brain back into the blood via both passive permeability as well as active transport mechanisms mediated by efflux and uptake transporters that are expressed on the MDCK-MDR1 cells, predominantly by the overexpressed human MDR1 P-gp. The compounds are assigned to permeability/absorption classes by comparison of the AB permeabilities with the AB permeabilities of reference compounds with known in vitro permeability and oral absorption in the human. Identical or similar permeabilities in both transport directions indicate passive permeation, vectorial permeability points to additional active transport mechanisms. Higher PEBA than PEAB indicates the involvement of active efflux mediated by MDR1 P-gp. Active transport is concentration-dependently saturable.
MDCK-MDR1 cells (1-2×10e5 cells/1 cm2 area) are seeded on filter inserts (Costar transwell polycarbonate or PET filters, 0.4 μm pore size) and cultured (DMEM) for 7 days. Subsequently, the MDR1 expression is boosted by culturing the cells with 5 mM sodium butyrate in full medium for 2 days. Compounds are dissolved in appropriate solvent (like DMSO, 1-20 mM stock solutions). Stock solutions are diluted with HTP-4 buffer (128.13 mM NaCl, 5.36 mM KCl, 1 mM MgSO4, 1.8 mM CaCl2, 4.17 mM NaHCO3, 1.19 mM Na2HPO4×7H2O, 0.41 mM NaH2PO4xH2O, 15 mM HEPES, 20 mM glucose, 0.25% BSA, pH 7.4) to prepare the transport solutions (0.1-300 μM compound, final DMSO <=0.5%). The transport solution (TL) is applied to the apical or basolateral donor side for measuring A-B or B-A permeability (3 filter replicates), respectively. The receiver side contains the same buffer as the donor side. Samples are collected at the start and end of experiment from the donor and at various time intervals for up to 2 hours also from the receiver side for concentration measurement by HPLC-MS/MS or scintillation counting. Sampled receiver volumes are replaced with fresh receiver solution.

Row | Structure (SMILES) | efflux ratio | Papp A→B [×10⁻⁶ cm/s]
1 | COc1ncc(-c2ccc(OCc3c(C)nnn3-c3ccc(C(F)F)cc3)nn2)cn1 [Example 3] | 0.6 | 59.7
2 | Cc1nnn(-c2ccc(C(F)F)cc2)c1COc1ccc(-n2cnc(C[N+](C)(C)C)c2)nn1.O=C([O-])C(F)(F)F [Example 36, ({1-[6-({1-[4-(difluoromethyl)phenyl]-4-methyl-1H-1,2,3-triazol-5-yl}methoxy)pyridazin-3-yl]-1H-imidazol-4-yl}methyl)trimethylazanium trifluoroacetate] | 0.5 | 0.6
3 | Cc1nnn(-c2ccc(C(F)F)cc2)c1COc1ccc(-n2cnc(C(F)F)c2)nn1 [Example 15] | 1.1 | 31.8
4 | Cc1nnn(-c2ccc(C(F)F)cc2)c1COc1ccc(-c2cnn(C3CC3)c2)nn1 [Example 9] | 0.8 | 42.4
5 | Cc1cc(-c2ccc(OCc3c(C)nnn3-c3ccc(C(F)F)cc3)nn2)cnn1 [Example 11] | 3.7 | 18.8
6 | CCn1cc(-c2ccc(OCc3c(C)nnn3-c3ccc(C(F)F)cc3)nn2)cn1 [Example 7] | 2.7 | 17.7
7 | Cc1ncc(-c2ccc(OCc3c(C)nnn3-c3ccc(C(F)F)cc3)nn2)o1 [Example 6] | 0.7 | 67.8
8 | Cc1nnn(-c2ccc(C(F)F)cc2)c1COc1ccc(-n2cnc(Cl)c2)nn1 [Example 18] | 1.1 | 28.5
9 | CNC(=O)c1cn(-c2ccc(OCc3c(C)nnn3-c3ccc(C(F)F)cc3)nn2)cn1 [Example 14] | 3.8 | 14.6

The remaining lines, values ahead:

Row | efflux ratio | Papp A→B [×10⁻⁶ cm/s] | Structure (SMILES)
10 | 0.4 | 51.3 | Cc1nnn(-c2ccc(C(F)F)cc2)c1COc1ccc(-n2ccc(C(F)(F)F)n2)nn1 [Example 24]
11 | 3.4 | 17.6 | CC(=O)c1cn(-c2ccc(OCc3c(C)nnn3-c3ccc(C(F)F)cc3)nn2)cn1 [Example 32]
12 | 0.6 | 52 | Cc1nnn(-c2ccc(C(F)F)cc2)c1COc1ccc(-n2ccc(C#N)n2)nn1 [Example 20]
13 | 2.8 | 18.8 | COC(=O)c1cn(-c2ccc(OCc3c(C)nnn3-c3ccc(C(F)F)cc3)nn2)cn1 [Example 29]
14 | 1.1 | 49.6 | Cc1nnn(-c2ccc(C(F)F)cc2)c1COc1ccc(-c2cncnc2)nn1 [Example 22]
15 | 0.3 | 56.1 | Cc1nnn(-c2ccc(C(F)F)cc2)c1COc1ccc(-n2cc(C(F)(F)F)cn2)nn1 [Example 25]
16 | 0.8 | 0.7 | Cc1nnn(-c2ccc(C(F)F)cc2)c1COc1ccc(-n2cnc(C(=O)O)c2)nn1 [Example 37, 1-[6-({1-[4-(difluoromethyl)phenyl]-4-methyl-1H-1,2,3-triazol-5-yl}methoxy)pyridazin-3-yl]-1H-imidazole-4-carboxylic acid]
17 | 0.9 | 52.2 | Cc1ncn(-c2ccc(OCc3c(C)nnn3-c3ccc(C(F)F)cc3)nn2)n1 [Example 33]
18 | 1.2 | 25 | Cc1nnn(-c2ccc(C(F)F)cc2)c1COc1ccc(-n2ccc(C(N)=O)n2)nn1 [Example 21]
